Results taken from US20260183225A1, “PHARMACEUTICAL COMPOSITION FOR TOPICAL ADMINISTRATION COMPRISING A VOLATILE ANAESTHETIC” (LABORATORIOS GEBRO PHARMA, S.A., priority 2022, published 2026).

Legend:
A delta nerve fibres = test: isolated nerve fibre model (electrophysiology of A delta fibres)
Protocol: In a first step, an isolated nerve fibre model was used and the effect of a 25% dilution (nutrient solution) of LGP10-16 on the different electrophysiological variables of the A delta nerve fibres was evaluated. The stimulated fibres from the A delta type correspond to nociceptive sensory fibres. 250 μl of LGP10-16 and 750 μl of nutrient solution were used in this test.

mouse vas deferens = mouse vas deferens preparation, inhibition of contractile activity
Protocol: In a second step, the effect of different concentrations of LGP10-16 on preparations of mouse vas deferens and guinea-pig ileum LMMP was studied.
After adding a concentration of the drug to the organ bath, it is left for 9 minutes to test its effect, after which the preparation is washed. At the end of the first concentration-response curve (left bars), it is left for 90 mins and the second curve is created (right bars).

guinea-pig ileum LMMP = guinea-pig ileum LMMP preparation, inhibition of contractile activity
Excerpt: In a second step, the effect of different concentrations of LGP10-16 on preparations of mouse vas deferens and guinea-pig ileum LMMP was studied. […] In the case of this preparation, after washing, the curve has the same appearance, and the LGP10-16 activity is the same in both curves. To further investigate these differences, the battery of guinea-pig ileum experiments was repeated, this time without washing between the two curves, to see if the effect changed in any way. […] This is a clear synergic effect, as a result of the continued presence of LGP10-16 in the bath.

[1] = test system: sciatic nerve ligation or chronic constriction injury (CCI) model; test: von Frey filament test (mechanical allodynia), CCI model, subcutaneous injection; type: in vivo, rat
Protocol: (§1) Male Wistar rats with a body weight between 250 and 300 g were kept in standard laboratory conditions (12 h light/dark cycles, temperature 21° C.). Four groups were formed and treated once a day with a composition comprising an active ingredient: • Group 1 was administered 10% of LGP10-16. • Group 2 was administered 25% of LGP10-16. • Group 3 was administered 100% of LGP10-16. • A control group 4 was administered saline solution. Each group consisted of 15 rats.
The sciatic nerve ligation or chronic constriction injury (CCI) model for as described by Bennett and Xie was used. The sciatic nerve ligation model generates a peripheral nerve injury that causes the appearance of mechanical and thermal hyperalgesia, mechanical allodynia and sometimes signs of spontaneous pain can be observed, by the spontaneous 5 elevation of the paw. All these symptoms appear one week after nerve ligation and can last more than two months. The added value of the model is that each animal can be its own control, since the contralateral paw, not being injured, reflects normal values. […]

[2] = test system: sciatic nerve ligation or chronic constriction injury (CCI) model; test: rodent pincher test (mechanical hyperalgesia), CCI model, subcutaneous injection; type: in vivo, rat; conditions: s.c. once a day; 10%, 25% and 100% LGP10-16
Protocol: as §1
The sciatic nerve ligation or chronic constriction injury (CCI) model for as described by Bennett and Xie was used. The sciatic nerve ligation model generates a peripheral nerve injury that causes the appearance of mechanical and thermal hyperalgesia, mechanical allodynia and sometimes signs of spontaneous pain can be observed, by the spontaneous 5 elevation of the paw. All these symptoms appear one week after nerve ligation and can last more than two months. The added value of the model is that each animal can be its own control, since the contralateral paw, not being injured, reflects normal values.
Mechanical hyperalgesia was tested in the rodent pincher test. The rodent pincher algometer allows calibrated forceps to induce quantifiable mechanical stimulation in the animal. The pressure is applied in the “inter-digital” region. […]

[3] = test system: sciatic nerve ligation or chronic constriction injury (CCI) model; test: conditioned place preference (CPP) test, spontaneous pain, CCI model; type: in vivo, rat; conditions: LGP10-16 25%; day 14 and day 21
Excerpt: The conditioned place preference (CPP) test assesses emotional responses; it is based on the evaluation of an associated learning behaviour in response to a new aversive environment. The CPP apparatus (70×30×30 cm) is divided into 3 compartments: two test compartments of identical dimensions and a third one considered as a neutral zone, which is narrower. The two test compartments have different visual and tactile characteristics (colour and texture of the walls and floor), so that the animal can differentiate them well and can be isolated by movable doors, so that communication between the three compartments can be allowed or blocked. On the pre-conditioning day, the animal was allowed to roam freely in the three compartments for 30 min, and the time spent in each compartment was measured ([…] that spend more than 60% in one compartment were excluded).
On conditioning days, animals were administered the drug and confined for 15 min in one of the test compartments (always in the same compartment) in order to associate the drug administration to that area. This conditioning procedure was repeated for each administration of the drug. […] The CPP value is expressed as the difference between the […]. […]

Male Wistar rats = test: healing and local tolerability after subcutaneous injection in CCI rats; type: in vivo, rat
Protocol: as §1

[4] = maximum concentration 25%, second curve

## FCOC(C(F)(F)F)C(F)(F)F [LGP10-16, Sevoflurane]
A delta nerve fibres; 25% dilution
  reversibility of the effect: reversible
A delta nerve fibres; 25% dilution in nutrient solution, increasing pressure stimulus
  effect on nerve fibre firing capacity: inhibition of the nerve fibre firing capacity
A delta nerve fibres; 25% dilution, maintained after washing the fibre
  duration of the effect after a single application: up to 90 minutes
A delta nerve fibres; 25% solution
  effect level reached with a 25% solution: maximum effect was reached
Mouse vas deferens; 25%, washed after first curve
  recovery of contractile capacity after washing after the first curve: around 75%
Mouse vas deferens; Mus musculus, 25%, washed after second curve, read-out: contractile activity after washing after the second curve, of maximum response
  Emax: 50%
Mouse vas deferens; after changing the nutrient solution
  persistence of the effect after washing: maintained even 90 minutes after washing the preparation
Mouse vas deferens; concentrations from 1% to 25% added to the bath, 9 minutes
  inhibition of the contractile response: concentration-dependent inhibition
Mouse vas deferens; maximum concentration 25%
  inhibition at the end of the first curve: 55%
Mouse vas deferens; [4]
  inhibition at the end of the second curve: 85%
guinea-pig ileum LMMP; 1% to 25%, without washing, more inhibitory at intermediate doses
  effect when the preparation was not washed between the two curves: somewhat greater
guinea-pig ileum LMMP; 25%, washed after first curve
  recovery of contractile capacity after washing after the first curve: 100%
guinea-pig ileum LMMP; 25%, washed after second curve
  recovery of function after washing after the second curve: 100%
guinea-pig ileum LMMP; concentration of 10% and 25%
  inhibition of functional activity: complete (and reversible) inhibition
guinea-pig ileum LMMP; increasing concentrations 1% to 25%, maximum 25%
  inhibition at the end of the first curve: 100%
guinea-pig ileum LMMP; [4]
  inhibition at the end of the second curve: 100%
[1]; from the first run at day 7, all doses (10%, 25%, 100%)
  difference with respect to the control (von Frey): statistically significant differences
[1]; s.c. once a day, 10%, 25% and 100% LGP10-16
  antiallodynic effect (von Frey): dose- and time-dependent antiallodynic effect
[2]
  antihyperalgesic effect (rodent pincher): dose and time-dependent
[3]
  time spent in the compartment associated with drug administration (CPP): spent more time in the room associated with drug administration
Male Wistar rats; concentrations of 10% and 25%, s.c.
  effect on healing: not negatively affected
Male Wistar rats; group 3, 100% LGP10-16, s.c.
  local adverse findings: skin irritation and blistering
Male Wistar rats; summary statement
  side effects in animal models: no relevant side effects
